Data on eight molecules can be found in patent US10730892B2, “Homoallylamines as formaldehyde-responsive triggers” (The Regents of the University of California, priority 2015, dated 2020).

The subject of data set [1] is HEK293T cells. To be noted: FA in BSS, 37° C., 30 min.
Another data set deals with HEK293TN cells. To be noted: 3 hrs. As to the method: Prior to imaging, cells were allowed to recover in FA-free buffer for 30 min. […] Because FA is a powerful fixative, cell viability assays were performed to determine the cytotoxicity of FA under experimental conditions. A dye exclusion protocol was employed, utilizing trypan blue to selectively stain and distinguish dead cells from those that were viable. […] To further verify that the cell populations under investigation were indeed alive, DAPI, a cell permeable nuclear and chromosome counterstain, was employed to identify intact nuclei (FIG. 16).

Data set [2] in a line: Fluorescence properties of compounds 3, 4, 5 and FP1 (Table 1). The data set is classed as physicochemical. The source says:
Such red-shifted fluorophores are desirable because of low autofluorescence, minimal phototoxicity, and negligible interference from biomolecules when employed in live cell imaging. […] In the presence of FA, a reversible condensation event yielded an iminium intermediate which can undergo a charge-promoted [3,3]-sigmatropic rearrangement-hydrolysis sequence to expel the aryl nitro group and afford a highly fluorescent indole-3-carboxaldehyde product (ΦF=0.11) (Table 1). Of note, the aldehyde is strategically positioned at C3 such that after the reaction cascade, the N1 lone pair electrons can delocalize into the π-system rather than quench fluorescence via an acceptor-excited PeT (a-PeT) pathway. In this regard, silicon rhodol 3, without the carboxaldehyde, is non-fluorescent (Table 1).

Data set [3] can be described thus: pH-Fluorescence profile of compound 4. The data set is classed as physicochemical. To be noted: pH 2.0 to 10.4, 25° C. As to the method:
FIG. 7 depicts the pH-Fluorescence profile of compound 4 (as denoted in FIG. 3). Fluorescence intensity was measured at 25° C. for the following pH values and indicated buffers: 50 mM Glycine (2.0, 2.4, 2.7, 3.1, 3.5), 50 mM sodium acetate (4.0, 4.4, 4.8, 5.2, 5.6), 50 mM MES (5.6, 6.0, 6.4, 6.8), 50 mM HEPES (6.8, 7.2, 7.4, 7.8, 8.2), 50 mM Tris (8.2, 8.6, 9.0, 9.5) and 50 mM glycine (9.5, 9.9, 10.4).

The conditions of data set [4]: in 1% pyridine/toluene; cited from earlier work.
How the values of data set [5] were obtained: (§1) 999 μL of a 10.01 μM solution of FAP-1 (for 4-hydroxynonenal cuvette: 998.4 μL of a 10.02 μM solution of FAP-1; for glutathione cuvette: 950 μL of a 10.53 μM solution of FAP-1) in 20 mM PBS (pH 7.4) was prepared by diluting a 10 mM DMSO stock solution of FAP-1 into pre-warmed PBS (37° C.) in a 1-cm×1-cm quartz cuvette. The analyte of interest was added to the cuvette to bring the concentration of analyte to 100 μM (unless otherwise specified) and the concentration of FAP-1 to 10 μM, followed by mixing by vigorous pipetting for 5 seconds, and a t=0 spectrum was acquired. The cuvette was placed in a 37° C. water bath. Emission spectra were recorded by quickly removing the cuvette from the water bath, obtaining the spectrum, and returning the cuvette to the bath. Spectra were taken at t=0, 20, 45, 60, 90, and 120 min (see FIG. 24B).

The subject of data set [6] is HEK293T cells. The method, then:
FIG. 29 depicts a photostability study with FAP-1. A field of HEK293T cells loaded with 10 μM FAP-1 in BSS at 37° C. was irradiated using 50% laser power (dashed line) or 6% laser power (solid line) with a pinhole of 1 airy unit for 100 scans. Emission was normalized to the first scan for each field. Error bars represent standard deviation, n=5.

The procedure of data set [7]:
as §1
1 μL of 100 mM stock solution of methylglyoxal in Milli-Q water (freshly prepared by diluting 7.7 μL of neat methylglyoxal to 500 μL with Milli-Q water) was added to 999 μL of a 10.01 μM solution of FAP-1 in PBS.
This is another data set of the same source.

For data set [8], the system named is HEK293T cells. To be noted: 10 μM FAP-1 30 min, FA 200 μM to 1 mM. As to the method: Statistical analyses for multiple comparisons were performed using one-way ANOVA with the Bonferroni correction in the statistical analysis software, R.
How the values of data set [9] were obtained: A modified version of the shake method was used to determine the partition coefficient or log Doct/wat value for FAP-1 (Rothbard et al., J. Am. Chem. Soc. 2004, 126:9506-9507). Briefly, 1-octanol-saturated PBS (248 μL), PBS-saturated 1-octanol (248 μL), and 1 mM solution of FAP-1 in DMSO (5 μL) were added to a 0.6-mL microcentrifuge tube. The dye was partitioned between the layers via vortexing for 30 s. The microcentrifuge tube was centrifuged on a bench-top minifuge at 4 k rpm for 4 minutes to separate the layers. A portion of the 1-octanol layer (200 μL) was transferred to a 96-well plate, and the fluorescence emission from 665-700 nm was measured (excitation at 645 nm) using a Synergy Mx multimode microplate reader (BioTek Instruments, Inc.) equipped with fluorescence module. The concentration of dye in the 1-octanol layer was determined by comparison with a standard curve constructed from six data points.
This is another data set of the same source.

How the values of data set [10] were obtained: Milli-Q water was used to prepare all aqueous solutions. All spectroscopic measurements were performed in 20 mM PBS, pH 7.4. Absorption spectra were recorded using a Varian Cary 50 spectrophotometer, and fluorescence spectra were recorded using a Photon Technology International Quanta Master 4 L-format scan spectrofluorometer equipped with an LPS-220B 75-W xenon lamp and power supply, A-1010B lamp housing with integrated igniter, switchable 814 photocounting/analog photomultiplier detection unit, and MD5020 motor driver. Samples for absorption and emission measurements were contained in 1-cm×1-cm quartz cuvettes (1.4-mL volume, Starna).
Quantum yield was determined using zinc phthalocyanine (ZnPc) as a standard according to a published method (Williams et al., Analyst. 1983, 108:1067-1071). For FAP-1 and ZnPc, the absorbance spectra were measured within an absorbance range below 0.1. The quantum yield was calculated according to the equation: ϕsample=ϕstandard (Gradsample/Gradstandard)(ηsample^2/ηstandard^2); where ϕ is the quantum yield, ϕstandard=0.34 in 1% pyridine/toluene (Bishop et al., J. Photochem. Photobiol. 1995, 90:39-44), Grad is the slope of the plot of absorbance versus integrated emission intensity, and η is the refractive index of the solvent.
The source holds these as a separate data set.

How the values of data set [11] were obtained: 999 μL of a 10.01 μM solution of FAP-1 in 20 mM PBS (pH 7.4) was prepared by diluting a 10 mM dimethylsulfoxide (DMSO) stock solution of FAP-1 into pre-warmed PBS (37° C.) in a 1-cm×1-cm quartz cuvette. 1 μL of 100 mM stock solution of FA (freshly prepared by diluting commercial 37 wt. % in H2O FA solution) was added (for a final concentration of 100 μM), and the mixture was mixed by vigorous pipetting for 5 s, followed by acquisition of the t=0 spectrum. Emission spectra (λex=645 nm, λem=655-750 nm) were collected at 0, 20, 45, 60, 90, and 120 min (see FIG. 24A). Temperature was maintained at 37° C. throughout the experiment by immersing the cuvette in a heated water bath between measurements.
999 μL of a 10.01 μM solution of FAP-1 in 20 mM PBS (pH 7.4) was prepared by diluting a 10 mM DMSO stock solution of FAP-1 into pre-warmed PBS (37° C.) in a 1-cm×1-cm quartz cuvette. 1 μL of a FA stock solution (either 5 mM or 1 mM, freshly prepared by diluting commercial 37 wt. % FA solution with Milli-Q water) or 1 μL of PBS was added (for a final concentration of 5 μM, 1 μM, or 0 μM FA), and the mixture was mixed by vigorous pipetting for 5 s and placed in a 37° C. water bath. Emission spectra were obtained after 120 min. Statistical analyses for multiple comparisons were performed using one-way ANOVA with the Bonferroni correction in the statistical analysis software, R.
The source holds these as a separate data set.

In the next data set the test system is MCF7 cells. The data set can be described thus: Confocal microscopy of FAP-1 in LSD1 inhibitor-treated MCF7 cells (endogenous FA). Format: cell-based, human. To be noted: 10 μM FAP-1 60 min. The source says:
Scale bar represents 50 μm in all images. […] Scale bar represents 50 μm in all images. […] Error bars denote SEM, n=6. *P<0.005

Each structure is given as a SMILES string. Where two headings read alike, the source gives them in different places.

`C=O` [FA, Formaldehyde]: the “loss in viability (trypan blue)” value in the data set with NS1 cells (NS1, 2.5 mM FA, 3 hrs) is reported as “ca. 12%”. Further, the “cell death (trypan blue)” value with NS1 cells (NS1, 5 mM FA) is given as “considerable cell death”. Besides, the “cell viability (propidium iodide assay)” value with HEK293T cells [1] is “no difference between FA-treated and untreated cells”. Moreover, the “dead cells (trypan blue)” value in the data set with HEK293TN cells (1 mM FA) is recorded as 5%. Moreover, the “cells no longer viable (trypan blue)” value in the data set with HEK293TN cells (5 mM FA) is listed as about 35%.
For the molecule `Cc1cc2c(cc1C1=C3C=CC(=O)C=C3[Si](C)(C)c3c1cc1c4c3CCCN4CCC1)c(C=O)cn2C` [Compound 4, 5-(14,14-dimethyl-12-oxo-2,3,6,7,12,14-hexahydro-1H,5H-benzo [5,6]silino [2,3-f]pyrido[3,2,1-ij]quinolin-9-yl)-1,6-dimethyl-1H-indole-3-carbaldehyde], in data set [2], the “Φ (quantum efficiency, ΦF)” value is 0.13; the ε turned out to be 106000 M⁻¹ cm⁻¹; the λabs is given as 633 nm; the λem is listed as 649 nm. Moreover, in data set [2] (listed as indole-3-carboxaldehyde product), the “Φ (quantum efficiency, ΦF)” value is on record as 0.11. Moreover, in [3], the pH-fluorescence profile entry was “high fluorescence intensity was maintained under physiological conditions”.
For the molecule `[Zn+2].c1ccc2c(c1)-c1nc-2nc2[n-]c(nc3nc([n-]c4nc(n1)-c1ccccc1-4)-c1ccccc1-3)c1ccccc21` [ZnPc, zinc phthalocyanine], the “ϕstandard (quantum yield)” value in data set [4] is 0.34.
In the case of `C=CCC1NC2(c3ccc(C(=O)O)cc31)c1ccc(N(C)C)cc1[Si](C)(C)c1cc(N(C)C)ccc12` (stereo not drawn) [FAP-1], the “selectivity for FA over competing RCS and carbonyl-containing molecules” value in data set [5] (10 μM FAP-1, 100 μM analyte (glucose 1 mM), 37° C.) is “good selectivity”. The change in fluorescence result in [5] (100 μM H2O2) and in data set [5] (5 mM glutathione) was “no change in fluorescence” throughout. Moreover, the figures for the photostability result with HEK293T cells [6] (50% laser power) and in the data set with HEK293T cells [6] (100 scans with 6% laser power) were “slight photobleaching” and “consistent fluorescence intensity”, respectively. The fluorescence response entry was “not responsive” in data set [7] (10 μM methylglyoxal) and “small response” in data set [7] (100 μM methylglyoxal (super-physiological)). Also, in the data set on HEK293T cells [8], the “fluorescence turn-on in FA-treated cells over control cells” value is “significant and dose-dependent fluorescence turn-on”. The “log Doct/wat” value in data set [9] (1-octanol / PBS, mean±standard deviation, triplicate) stood at 0.53±0.01. In [9] (aqueous solution buffered to pH 7.4), the “solubility in aqueous solution” value was “good solubility”. Also, the ε650 in [10] (20 mM PBS, pH 7.4) is 190 M^1 cm^−1. Also, the “φfl (quantum yield)” value in data set [10] (20 mM PBS, pH 7.4, ZnPc as standard) was found to be 0.36. Moreover, the λem in [10] (turn-on response to FA) was found to be 662 nm. The λmax in [10] (turn-on response to FA) was determined as 645 nm. The “turn-on response at saturation” value in [11] (10 μM FAP-1, 100 μM FA, extended incubation times) is reported as “ca. 45 fold”. Also, in data set [11] (10 μM FAP-1, 100 μM FA, pH 7.4, 37° C., within 1 h), the “fold fluorescence turn-on response” value is “ca. 8 fold”. In addition, the “in vitro detection limit for FA” value in data set [11] (10 μM FAP-1, 2-hour cutoff) worked out at 5 µM.
As for `c1ccc([C@@H]2C[C@H]2NC2CCNCC2)cc1` [GSK-LSD1], in the data set with MCF7 cells (MCF7, 1 μM inhibitor for 20 h), the “effect on FAP-1 fluorescence” value is on record as “attenuated FAP-1 fluorescence”.
As for `Cc1cc2c(ccn2C)cc1C1=C2C=CC(=O)C=C2[Si](C)(C)c2c1cc1c3c2CCCN3CCC1` [Compound 3, 9-(1,6-dimethyl-1H-indol-5-yl)-14,14-dimethyl-2,3,5,6,7,14-hexahydro-1H,12H-benzo[5,6]silino[2,3-f]pyrido[3,2,1-ij]quinolin-12-one], in [2], the ε is 86000 M⁻¹ cm⁻¹, the λabs worked out at 633 nm and the λem is recorded as 649 nm. In addition, in [2] (without the carboxaldehyde), the “fluorescence (in words)” value is “non-fluorescent”.
As to `N[C@@H]1C[C@H]1c1ccccc1` (racemic) [TCP, tranylcypromine], the “decrease in FAP-1 fluorescence signal compared to control cells” value with MCF7 cells (MCF7, 20 μM inhibitor for 20 h) is given as “ca. 20%”.
In the case of `C=CCC(N)c1cn(C)c2cc(C)c(C3=C4C=CC(=O)C=C4[Si](C)(C)c4c3cc3c5c4CCCN5CCC3)cc12` (stereo not drawn) [Compound 5, 9-(3-(1-aminobut-3-en-1-yl)-1,6-dimethyl-1H-indol-5-yl)-14,14-dimethyl-2,3,5,6,7,14-hexahydro-1H,12H-benzo[5,6]silino[2,3-f]pyrido[3,2,1-ij]quinolin-12-one], in [2], the “Φ (quantum efficiency, ΦF)” value was 0.02; the ε came out at 100000 M⁻¹ cm⁻¹; the λabs was 633 nm; the λem is 649 nm.
